From patent EP1157985A1 (G.D. SEARLE & CO., priority 1996, dated 1997)
Where a name gives a salt, the structure may show the parent alone. Read-outs that look alike come from different tables or passages of the source.

How the values were obtained:
[1] = target: T1, Human vitronectin receptor (αvβ3) (Homo sapiens, UniProt P05106+P06756); experiment: Vitronectin adhesion assay (solid phase receptor assay, competition with biotinylated vitronectin); type: binding
T1 construct: Human vitronectin receptor (αvβ3) was purified from human placenta; from tissue; host or cells: human placenta
Description: VITRONECTIN ADHESION ASSAY
Human vitronectin receptor (αvβ3) was purified from human placenta as previously described [Pytela et al., Methods in Enzymology, 144:475-489 (1987)]. Human vitronectin was purified from fresh frozen plasma as previously described [Yatohgo et al., Cell Structure and Function, 13:281-292 (1988)]. Biotinylated human vitronectin was prepared by coupling NHS-biotin from Pierce Chemical Company (Rockford, IL) to purified vitronectin as previously described [Charo et al., J. Biol. Chem., 266(3):1415-1421 (1991)]. Assay buffer, OPD substrate tablets, and RIA grade BSA were obtained from Sigma (St. Louis, MO). Anti-biotin antibody was obtained from Calbiochem (La Jolla, CA). Linbro microtiter plates were obtained from Flow Labs (McLean, VA). ADP reagent was obtained from Sigma (St. Louis, MO).
This assay was essentially the same as previously reported [Niiya et al., Blood, 70:475-483 (1987)]. The purified human vitronectin receptor (αvβ3) was diluted from stock solutions to 1.0 µg/mL in Tris-buffered saline containing 1.0 mM Ca^++, Mg^++, and Mn^++, pH 7.4 (TBS^+++). The diluted receptor was immediately transferred to Linbro microtiter plates at 100 µL/well (100 ng receptor/well). The plates were sealed and incubated overnight at 4°C to allow the receptor to bind to the wells. All remaining steps were at room temperature. The assay plates were emptied and 200 µL of 1% RIA grade BSA in TBS^+++ (TBS^+++/BSA) were added to block exposed plastic surfaces. Following a 2 hour incubation, the assay plates were washed with TBS^+++ using a 96 well plate washer. Logarithmic serial dilution of the test compound and controls were made starting at a stock concentration of 2 mM and using 2 nM biotinylated vitronectin in TBS^+++/BSA as the diluent. This premixing of labeled ligand with test (or control) ligand, and subsequent transfer of 50 µL aliquots to the assay plate was carried out with a CETUS Propette robot; the final concentration of the labeled ligand was 1 nM and the highest concentration of test compound was 1.0 x 10^-4 M. The competition occurred for two hours after which all wells were washed with a plate washer as before. Affinity purified horseradish peroxidase labeled goat anti-biotin antibody was diluted 1:3000 in TBS^+++/BSA and 125 µL were added to each well. After 30 minutes, the plates were washed and incubated with OPD/H2O2 substrate in 100 mM/L Citrate buffer, pH 5.0. The plate was read with a microtiter plate reader at a wavelength of 450 nm and when the maximum-binding control wells reached an absorbance of about 1.0, the final A450 were recorded for analysis. The data were analyzed using a macro written for use with the EXCEL™ spreadsheet program. The mean, standard deviation, and %CV were determined for duplicate concentrations. The mean A450 values were normalized to the mean of four maximum-binding controls (no competitor added)(B-MAX). The normalized values were subjected to a four parameter curve fit algorithm [Rodbard et al., Int.

[2] = target: T2, Human fibrinogen receptor (αIIbβ3) (Homo sapiens, UniProt P05106+P08514); experiment: Purified IIb/IIIa receptor assay (solid phase receptor assay, competition with biotinylated vitronectin); type: binding; conditions: purified receptor from outdated platelets; 1 nM biotinylated vitronectin; highest concentration tested 1.0 x 10^-4 M
T2 construct: Human fibrinogen receptor (αIIbβ3) was purified from outdated platelets; from tissue; host or cells: outdated (human) platelets
From the text: PURIFIED IIb/IIIa RECEPTOR ASSAY
Human fibrinogen receptor (αIIbβ3) was purified from outdated platelets. (Pytela, R., Pierschbacher, M.D., Argraves, S., Suzuki, S., and Rouslahti, E. "Arginine-Glycine-Aspartic acid adhesion receptors", Methods in Enzymology 144(1987):475-489.) Human vitronectin was purified from fresh frozen plasma as described in Yatohgo, T., Izumi, M., Kashiwagi, H., and Hayashi, M., "Novel purification of vitronectin from human plasma by heparin affinity chromatography," Cell Structure and Function 13(1988):281-292. Biotinylated human vitronectin was prepared by coupling NHS-biotin from Pierce Chemical Company (Rockford, IL) to purified vitronectin as previously described. (Charo, I.F., Nannizzi, L., Phillips, D.R., Hsu, M.A., Scarborough, R.M., "Inhibition of fibrinogen binding to GP IIb/IIIa by a GP IIIa peptide", J. Biol. Chem. 266(3)(1991): 1415-1421.) Assay buffer, OPD substrate tablets, and RIA grade BSA were obtained from Sigma (St. Louis, MO). Anti-biotin antibody was obtained from Calbiochem (La Jolla, CA). Linbro microtiter plates were obtained from Flow Labs (McLean, VA). ADP reagent was obtained from Sigma (St. Louis, MO).
This assay is essentially the same reported in Niiya, K., Hodson, E., Bader, R., Byers-Ward, V. Koziol, J.A., Plow, E.F. and Ruggeri, Z.M., "Increased surface expression of the membrane glycoprotein IIb/IIIa complex induced by platelet activation: Relationships to the binding of fibrinogen and platelet aggregation", Blood 70(1987):475-483. The purified human fibrinogen receptor (αIIbβ3) was diluted from stock solutions to 1.0 µg/mL in Tris-buffered saline containing 1.0 mM Ca^++, Mg^++, and Mn^++, pH 7.4 (TBS^+++). The diluted receptor was immediately transferred to Linbro microtiter plates at 100 µL/well (100 ng receptor/well). The plates were sealed and incubated overnight at 4°C to allow the receptor to bind to the wells. All remaining steps were at room temperature. The assay plates were emptied and 200 µL of 1% RIA grade BSA in TBS^+++ (TBS^+++/BSA) were added to block exposed plastic surfaces. Following a 2 hour incubation, the assay plates were washed with TBS^+++ using a 96 well plate washer. Logarithmic serial dilution of the test compound and controls were made starting at a stock concentration of 2 mM and using 2 nM biotinylated vitronectin in TBS^+++/BSA as the diluent. This premixing of labeled ligand with test (or control) ligand, and subsequent transfer of 50 µL aliquots to the assay plate was carried out with a CETUS Propette robot; the final concentration of the labeled ligand was 1 nM and the highest concentration of test compound was 1.0 x 10^-4 M. The competition occurred for two hours after which all wells were washed with a plate washer as before. Affinity purified horseradish peroxidase labeled goat anti-biotin antibody was diluted 1:3000 in TBS^+++/BSA and 125 µL were added to each well. After 30 minutes, the plates were washed and incubated with […] substrate in 100 mM/L citrate buffer, pH 5.0. The plate was read with a microtiter plate reader at a wavelength of 450 nm and when the maximum-binding control wells reached an absorbance of about 1.0, the final A450 were recorded for analysis. The data were analyzed using a macro written for use with the EXCEL™ spreadsheet program. The mean, standard deviation, and %CV were determined for duplicate concentrations. The mean A450 values were normalized to the mean of four maximum-binding controls (no competitor added)(B-MAX). The normalized values were subjected to a four parameter curve fit algorithm, [Robard et al., Int. […]

[3] = purified receptor from human placenta, 1 nM biotinylated vitronectin, highest concentration tested 1.0 x 10^-4 M, read-out: AvB3 IC50

| SMILES | IC50 [1, 3] [nM] | IC50 [2] [nM] | IC50 [1] [nM] | IC50 ([1]; read-out: AvB3 IC50, purified receptor from human placenta, 1 nM biotinylated vitronectin, highest concentration tested 1.0 x 10^-4 M) [nM] |
| --- | --- | --- | --- | --- |
| CCOC(=O)NC(Cc1ccc(NC(=O)c2cccc(NC(=N)N)c2)cc1)C(=O)O (stereo not drawn) [Example 49, trifluoroacetate salt] | 1.1 | 31.4 | – | – |
| CC(C)OC(=O)NC(Cc1ccc(NC(=O)c2cccc(Nc3noc(N)n3)c2)cc1)C(=O)O (racemic) [Example 104, (±) 4-[[[3-[(5-amino-1,2,4-oxadiazol-3-yl)amino]-phenyl]carbonyl]amino]-N-[(1-methylethoxy)carbonyl]phenylalanine, trifluoroacetate salt] | 506 | 1600 | – | – |
| N=C(N)Nc1cccc(S(=O)(=O)Nc2ccc(CCC(=O)O)cc2)c1 [Example 62, 4-[[[3-[(aminoiminomethyl)amino]phenyl]sulfonyl]amino]benzenepropanoic acid, trifluoroacetate salt] | 28100 | 14800 | – | – |
| N=C(N)Nc1cccc(C(=O)Nc2ccc(CC(NC(=O)c3ccccc3)C(=O)O)cc2)c1 (stereo not drawn) [Example 47, trifluoroacetate salt] | 5.89 | 51.1 | – | – |
| N=C(N)Nc1cccc(C(=O)Nc2ccc(CC(N)C(=O)O)cc2)c1 (stereo not drawn) [Example 65, 4-[[[3-[(aminoiminomethyl)amino]phenyl]carbonyl]amino]phenylalanine, trifluoroacetate salt] | 4760 | 21900 | – | – |
| CCOC(=O)C(Cc1ccc(NC(=O)c2cccc(NC(=N)N)c2)cc1)NC(C)=O (stereo not drawn) [Example 34, N-acetyl-4-[[[3-[(aminoiminomethyl)amino]phenyl)carbonyl]amino]phenylalanine ethyl ester, trifluoroacetate salt] | 45.2 | 2200 | – | – |
| CC(C)CC(=O)NC(Cc1ccc(NC(=O)c2cc(NC(=N)N)cc(C(F)(F)F)c2)cc1)C(=O)O (stereo not drawn) [Example 108, 4-[[[3-[(aminoiminomethyl)amino]-5-(trifluoromethyl)-phenyl]carbonyl]amino]-N-(3-methyl-1-oxobutyl) phenylalanine, trifluoroacetate salt] | 4 | 109 | – | – |
| N#CN=C(NCc1ccccc1)Nc1cccc(C(=O)Nc2ccc(CCC(=O)O)cc2)c1 [Example 79, 4-[[[3-[[(cyanoimino)[(phenylmethyl)-amino]methyl]amino]phenyl]carbonyl]amino]-benzenepropanoic acid] | 2290 | 10200 | – | – |
| CC(C)CC(=O)NC(Cc1ccc(NC(=O)c2cccc(NC(=N)N)c2)cc1)C(=O)O (stereo not drawn) [Example 106, 4-[[[3-[(aminoiminomethyl]amino]phenyl]-carbonyl]amino]-N-[(3-methyl-1-oxobutyl)-phenylalanine, bis(trifluoroacetate) salt] | – | 77 | 5 | – |
| O=C(Nc1ccc(CC(NS(=O)(=O)c2ccccc2)C(=O)O)cc1)c1cccc(NC2=NCCN2)c1 (stereo not drawn) [Example 112, 4-[[[3-[(4,5-dihydro-1H-imidazol-2-yl)amino]phenyl]-carbonyl]amino-N-(phenylsulfonyl)phenylalanine, trifluoroacetate salt] | 0.3 | 13 | – | – |
| CCCCS(=O)(=O)NC(Cc1ccc(NC(=O)c2cccc(NC(=N)N)c2)cc1)C(=O)OCC (stereo not drawn) [Example 41, trifluoroacetate salt] | – | 5700 | – | 1080 |
| CCOC(=O)C(Cc1ccc(NC(=O)c2cccc(NC(=N)N)c2)cc1)NC(=O)OC(C)(C)C (stereo not drawn) [Example 44, trifluoroacetate salt] | 120 | 4310 | – | – |
| O=C(Nc1ccc(C[C@H](NS(=O)(=O)c2ccccc2)C(=O)O)cc1)c1cccc(NC2=NCCCN2)c1 [Example 111, N-(phenylsulfonyl)-4-[[[3-[(1,4,5,6-tetrahydro-pyrimidin-2-yl)amino]phenyl]carbonyl]amino]-phenylalanine, trifluoroacetate salt] | 0.1 | 6 | – | – |
| CCOC(=O)CCc1ccc(CNC(=O)c2cccc(C#N)c2)cc1 [Example 12, ethyl 4-[[[[3-(cyano)phenyl]-carbonyl]amino]methyl]benzenepropanoate] | > 100000 | 69200 | – | – |
| NC(=O)Nc1cccc(C(=O)Nc2ccc(CCC(=O)O)cc2)c1 [Example 24, 4-[[[3-[(aminocarbonyl)amino]phenyl]carbonyl]amino]benzenepropanoic acid] | 1220 | 4530 | – | – |
| COc1cc(NC(=O)c2cccc(NC(=N)N)c2)ccc1CCC(=O)O [Example 115, 4-[[[3-(aminoiminomethyl)amino]phenyl]-carbonyl]amino]-2-methoxybenzenepropanoic acid, trifluoroacetate salt] | 24 | 173 | – | – |
| CN(C)c1cc(NC(=O)c2cccc(NC(=N)N)c2)ccc1CCC(=O)O [Example 117, 4-[[[3-[(aminoiminomethyl)amino]phenyl]carbonyl]-amino]-2-(dimethylamino)benzenepropanoic acid, bis(trifluoroacetate) salt] | 129 | 452 | – | – |
| CCOC(=O)COc1ccc(NC(=O)c2cccc(NC(=N)N)c2)cc1 [Example 89, ethyl [4-[[[3-[(aminoiminomethyl)amino]phenyl]carbonyl]amino]phenoxy]acetate, trifluoroacetate salt] | 2070 | 16000 | – | – |
